Measurements reported in publication PMC2883770 (Journal of natural products, 2009).

Legend:
[1] = tested on: MCF-7 human breast cancer cells; experiment: Cytotoxicity assay against MCF-7 cells; format: cell-based
[2] = tested on: HT-29 human colon cancer cells; experiment: Cytotoxicity assay against HT-29 cells; format: cell-based
[3] = tested on: HT-29 cells; experiment: Mitochondrial transmembrane potential; format: cell-based, human; conditions: 2 h treatment, JC-1 dye

| Structure (SMILES) | ED50 against MCF-7 cells [1] [µM] | ED50 against HT-29 cells [2] [µM] | ED50 in mitochondrial transmembrane potential assay [3] [µM] |
| --- | --- | --- | --- |
| CC(=O)O[C@@H]([C@H]1C[C@@H]1C(=O)C(C)OC(=O)/C=C/c1ccc(O)cc1)[C@H]1CC=CC(=O)O1 (stereo partly drawn) [Compound 1, Brevipolide A] | > 10 | 5.8 |  |
| CC(=O)O[C@@H]([C@H]1C[C@@H]1C(=O)C(C)OC(=O)/C=C\c1ccc(O)cc1)[C@H]1CC=CC(=O)O1 (stereo partly drawn) [Compound 2, Brevipolide B] | 6.1 | 6.1 |  |
| CC(OC(=O)/C=C/c1ccc(O)c(O)c1)C(=O)[C@H]1C[C@@H]1[C@H](O)[C@H]1CC=CC(=O)O1 (stereo partly drawn) [Compound 3, Brevipolide C] |  |  | 0.0085 |
| CC(OC(=O)/C=C\c1ccc(O)cc1)C(=O)[C@H]1C[C@@H]1[C@H](O)[C@H]1CC=CC(=O)O1 (stereo partly drawn) [Compound 6, Brevipolide F] | 6.7 | 7.5 |  |
| COc1ccc(-c2oc3cc(OC)c(O)c(O)c3c(=O)c2OC)cc1O [Compound 8, 5,6,3′-trihydroxy-3,7,4′-trimethoxyflavone] |  | 3.6 | 0.31 |
